Data as given in ChEMBL document CHEMBL4312011, “Synthesis and biological evaluation of triterpenoid thiazoles derived from betulonic acid, dihydrobetulonic acid, and ursonic acid” (Eur J Med Chem, 2020).
Converted amounts (≈) assume the structure as drawn. Each block holds one compound with its values, some of them ahead of it. The source made the active and inactive calls. No cut-off for these calls is given here.

Legend:
CCRF-CEM [1] = test: Induction of apoptosis in human CCRF-CEM cells assessed as activation of procaspase 8 at 5 times IC50 concentration measured after 24 hrs by Western blot analysis; format: functional, cell-based
A549 = test: Cytotoxicity against human A549 cells incubated for 72 hrs by MTS assay; format: functional, cell-based; conditions: A549, 72 h
CCRF-CEM [2] = test: Induction of apoptosis in human CCRF-CEM cells assessed as increase in caspase 3/7 activity using Ac-DEVD-AMC as substrate at 5 times IC50 concentration measured after 24 hrs by fluorescence assay; format: functional, cell-based
CCRF-CEM [3] = test: Induction of apoptosis in human CCRF-CEM cells assessed as viable cells at 5 times IC50 concentration measured after 24 hrs by AnnexinV-FITC/propidium iodide staining based flow cytometry analysis (reference value: 97 %); format: functional
[4] = Cytotoxicity against human CEM-DNR-bulk cells incubated for 72 hrs by MTS assay; format: functional, cell-based
[5] = Solubility of compound in 0.5 % DMSO in water by HPLC-MS analysis; format: physicochemical
[6] = Cytotoxicity against human K562-TAX cells incubated for 72 hrs by MTS assay; format: functional, cell-based
[7] = Protein binding in human plasma at 10 uM measured after 4 hrs by rapid equilibrium dialysis; format: ADME, cell-free; conditions: read-out: PPB (converted)
CCRF-CEM [8] = test: Induction of mitochondrial membrane depolarization in human CCRF-CEM cells at 5 times IC50 measured after 24 hrs by JC-1 staining based flow cytometry analysis (reference value: 8.4 %); format: functional
[9] = Chemical stability of compound in PBS buffer assessed as parent compound remaining at 2 uM at pH 7.4 and 37 degC incubated for 120 mins by RF-MS analysis; format: physicochemical; conditions: read-out: Stability
[10] = Chemical stability of compound in PBS buffer assessed as parent compound remaining at 2 uM at pH 7.4 and 37 degC incubated for 15 mins by RF-MS analysis; format: physicochemical; conditions: read-out: Stability
CCRF-CEM [11] = test: Induction of apoptosis in human CCRF-CEM cells assessed as late apoptotic cells at 5 times IC50 concentration measured after 24 hrs by AnnexinV-FITC/propidium iodide staining based flow cytometry analysis (reference value: 0.1 %); format: functional
[12] = Stability in human plasma assessed as parent compound remaining at 2 uM incubated for 60 mins by RF-MS analysis; format: ADME, cell-free; conditions: read-out: Stability
CCRF-CEM [13] = test: Cell cycle arrest in human CCRF-CEM cells assessed as decrease in proportion of cells in S phase at 5 times IC50 measured after 24 hrs by propidium iodide/RNase staining based flow cytometry analysis; format: functional
[14] = Microsomal stability in human liver microsomes assessed as parent compound remaining at 2 uM incubated for 30 mins by RF-MS analysis; format: ADME, Microsome; conditions: read-out: Stability
[15] = Chemical stability of compound in PBS buffer assessed as parent compound remaining at 2 uM at pH 7.4 and 37 degC incubated for 30 mins by RF-MS analysis; format: physicochemical; conditions: read-out: Stability
CCRF-CEM [16] = test: Induction of apoptosis in human CCRF-CEM cells assessed as decrease in Bcl-2 expression at 5 times IC50 concentration measured after 24 hrs by Western blot analysis; format: functional, cell-based
K562 = test: Cytotoxicity against human K562 cells incubated for 72 hrs by MTS assay; format: functional, cell-based; conditions: K562, 72 h
BJ = test: Cytotoxicity against human BJ cells incubated for 72 hrs by MTS assay; format: cell-based
U2OS = test: Cytotoxicity against human U2OS cells incubated for 72 hrs by MTS assay; format: functional, cell-based
[17] = Microsomal stability in human liver microsomes assessed as parent compound remaining at 2 uM incubated for 15 mins by RF-MS analysis; format: ADME, Microsome; conditions: read-out: Stability
[18] = Chemical stability of compound in PBS buffer assessed as parent compound remaining at 2 uM at pH 7.4 and 37 degC incubated for 60 mins by RF-MS analysis; format: physicochemical; conditions: read-out: Stability
MRC5 = test: Cytotoxicity against human MRC5 cells incubated for 72 hrs by MTS assay; format: cell-based; conditions: MRC5, 72 h
CCRF-CEM [19] = test: Induction of apoptosis in human CCRF-CEM cells assessed as necrotic cells at 5 times IC50 concentration measured after 24 hrs by AnnexinV-FITC/propidium iodide staining based flow cytometry analysis (reference value: 0.1 %); format: functional
CCRF-CEM [20] = test: Cell cycle arrest in human CCRF-CEM cells assessed as increase in G2/M phase accumulation at 5 times IC50 measured after 24 hrs by propidium iodide/RNase staining based flow cytometry analysis; format: functional
CCRF-CEM [21] = test: Induction of apoptosis in human CCRF-CEM cells assessed as increase in BAX expression at 5 times IC50 concentration measured after 24 hrs by Western blot analysis; format: functional, cell-based
CCRF-CEM [22] = test: Induction of apoptosis in human CCRF-CEM cells assessed as activation of caspase 7 at 5 times IC50 concentration measured after 24 hrs by Western blot analysis; format: functional, cell-based
[23] = Solubility of compound in 5 % DMSO in water by HPLC-MS analysis; format: physicochemical
CCRF-CEM [24] = test: Induction of apoptosis in human CCRF-CEM cells assessed as early apoptotic cells at 5 times IC50 concentration measured after 24 hrs by AnnexinV-FITC/propidium iodide staining based flow cytometry analysis (reference value: 2.8 %); format: functional
[25] = Solubility of compound in 10 % DMSO in water by HPLC-MS analysis; format: physicochemical
[26] = Stability in human plasma assessed as parent compound remaining at 2 uM incubated for 120 mins by RF-MS analysis; format: ADME, cell-free; conditions: read-out: Stability
[27] = Stability in human plasma assessed as parent compound remaining at 2 uM incubated for 30 mins by RF-MS analysis; format: ADME, cell-free; conditions: read-out: Stability
CCRF-CEM [28] = test: Induction of apoptosis in human CCRF-CEM cells assessed as activation of PARP cleavage at 5 times IC50 concentration measured after 24 hrs by Western blot analysis; format: functional, cell-based
CCRF-CEM [29] = test: Induction of apoptosis in human CCRF-CEM cells assessed as activation of caspase 3 at 5 times IC50 concentration measured after 24 hrs by Western blot analysis; format: functional, cell-based
CCRF-CEM [30] = test: Cytotoxicity against human CCRF-CEM cells incubated for 72 hrs by MTS assay; format: functional, cell-based
[31] = Permeability of compound in PBS buffer assessed as permeability coefficient at pH 7.4 incubated for 18 hrs by PAMPA based RF-MS analysis; format: ADME; conditions: pH 7.4, 18 h
[32] = Microsomal stability in human liver microsomes assessed as parent compound remaining at 2 uM incubated for 60 mins by RF-MS analysis; format: ADME, Microsome; conditions: read-out: Stability
[33] = Stability in human plasma assessed as parent compound remaining at 2 uM incubated for 15 mins by RF-MS analysis; format: ADME, cell-free; conditions: read-out: Stability
HCT-116 [34] = test: Cytotoxicity against human HCT116 cells incubated for 72 hrs by MTS assay; format: functional, cell-based; conditions: HCT-116, 72 h
HCT-116 [35] = test: Cytotoxicity against p53 knockout human HCT116 cells incubated for 72 hrs by MTS assay; format: functional, cell-based; conditions: HCT-116, 72 h
CCRF-CEM [36] = test: Cell cycle arrest in human CCRF-CEM cells assessed as decrease in proportion of cells in G1 phase at 5 times IC50 measured after 24 hrs by propidium iodide/RNase staining based flow cytometry analysis; format: functional

solubility [5]: 26 µM (≈ 13.3 µg/mL) | fraction unbound at 4 h, 10 µM [7]: 0.042 | remaining at 2 h, 2 µM [9]: 86.9% | remaining at 0.25 h, 2 µM [10]: 99.5% | remaining at 1 h, 2 µM [12]: 97.7% | remaining at 0.5 h, 2 µM [14]: 26% | remaining at 0.5 h, 2 µM [15]: 91.3% | remaining at 0.25 h, 2 µM [17]: 31% | remaining at 1 h, 2 µM [18]: 90.8% | solubility [23]: 45 µM (≈ 23 µg/mL) | solubility [25]: 89 µM (≈ 45.5 µg/mL) | remaining at 2 h, 2 µM [26]: 97.7% | remaining at 0.5 h, 2 µM [27]: 99.2% | log(permeability) [31]: -5.34 | remaining at 1 h, 2 µM [32]: 25.8% | remaining at 0.25 h, 2 µM [33]: 99.5%
Compound: C=C(C)[C@@H]1CC[C@]2(C(=O)O)CC[C@]3(C)[C@H](CC[C@@H]4[C@@]5(C)Cc6sc(N)nc6C(C)(C)[C@@H]5CC[C@]43C)[C@@H]12
Activity (CCRF-CEM [1]): Active | IC50 (A549): 38.4 µM | Activity (CCRF-CEM [2]): Active | Activity (CCRF-CEM [3]): 76.9% | IC50 [4]: 25.6 µM | IC50 [6]: 17.4 µM | Activity (CCRF-CEM [8]): 62.2% | Activity (CCRF-CEM [11]): 2.1% | Activity (CCRF-CEM [13]): Active | Activity (CCRF-CEM [16]): Active | IC50 (K562): > 50 µM | IC50 (BJ): > 50 µM | IC50 (U2OS): 48 µM | IC50 (MRC5): > 50 µM | Activity (CCRF-CEM [19]): 0.8% | Activity (CCRF-CEM [20]): Active | Activity (CCRF-CEM [21]): Active | Activity (CCRF-CEM [22]): Active | Activity (CCRF-CEM [24]): 20.2% | Activity (CCRF-CEM [28]): Active | Activity (CCRF-CEM [29]): Active | IC50 (CCRF-CEM [30]): 2400 nM | IC50 (HCT-116 [34]): 36.5 µM | IC50 (HCT-116 [35]): 48.3 µM

solubility [5]: 24 µM (≈ 12.8 µg/mL) | fraction unbound at 4 h, 10 µM [7]: 0.176 | remaining at 2 h, 2 µM [9]: 88.5% | remaining at 0.25 h, 2 µM [10]: 99.6% | remaining at 1 h, 2 µM [12]: 94.9% | remaining at 0.5 h, 2 µM [14]: 80.7% | remaining at 0.5 h, 2 µM [15]: 99.2% | remaining at 0.25 h, 2 µM [17]: 93.4% | remaining at 1 h, 2 µM [18]: 99.1% | solubility [23]: 30 µM (≈ 16 µg/mL) | solubility [25]: 83 µM (≈ 44.3 µg/mL) | remaining at 2 h, 2 µM [26]: 85.5% | remaining at 0.5 h, 2 µM [27]: 98.2% | log(permeability) [31]: -4.93 | remaining at 1 h, 2 µM [32]: 66.2% | remaining at 0.25 h, 2 µM [33]: 98.5%
Compound: C[C@H]1[C@H](C)CC[C@]2(C(=O)O)CC[C@]3(C)C(=CC[C@@H]4[C@@]5(C)CC(Br)C(=O)C(C)(C)[C@@H]5CC[C@]43C)[C@H]12 (stereo partly specified)
Activity (CCRF-CEM [1]): Active | IC50 (A549): 27.6 µM | Activity (CCRF-CEM [2]): Active | Activity (CCRF-CEM [3]): 80.7% | IC50 [4]: 21.8 µM | IC50 [6]: 25.1 µM | Activity (CCRF-CEM [36]): Active | Activity (CCRF-CEM [8]): 36.3% | Activity (CCRF-CEM [11]): 2.4% | Activity (CCRF-CEM [13]): Active | Activity (CCRF-CEM [16]): Active | IC50 (K562): 38.8 µM | IC50 (BJ): 49.5 µM | IC50 (U2OS): 20.7 µM | IC50 (MRC5): 29.3 µM | Activity (CCRF-CEM [19]): 0.4% | Activity (CCRF-CEM [20]): Active | Activity (CCRF-CEM [21]): Active | Activity (CCRF-CEM [22]): Active | Activity (CCRF-CEM [24]): 16.5% | Activity (CCRF-CEM [28]): Active | Activity (CCRF-CEM [29]): Active | IC50 (CCRF-CEM [30]): 3600 nM | IC50 (HCT-116 [34]): 28.4 µM | IC50 (HCT-116 [35]): 29.8 µM
